Key:
Format in all cases: biochemical
[1] = biological target: T1, endothiapepsin (Cryphonectria parasitica, UniProt P11838); assay: fluorescence-based protease assay adapted from HIV protease assay; Ki presumably from IC50 (Cheng-Prusoff)
T1 construct: gene EAPA; mature active enzyme, monomer
Excerpt: fluorescence-based protease assay adapted from HIV protease assay; Ki presumably from IC50 (Cheng-Prusoff) on endothiapepsin

[2] = biological target: T1, endothiapepsin; assay: fluorescence-based protease assay adapted from HIV protease assay; crystal soaking
Excerpt: fluorescence-based protease assay adapted from HIV protease assay; crystal soaking on endothiapepsin

[3] = biological target: T1, endothiapepsin; assay: fluorescence-based protease assay adapted from HIV protease assay
Excerpt: fluorescence-based protease assay adapted from HIV protease assay on endothiapepsin

T1 sequence (P11838 90-419): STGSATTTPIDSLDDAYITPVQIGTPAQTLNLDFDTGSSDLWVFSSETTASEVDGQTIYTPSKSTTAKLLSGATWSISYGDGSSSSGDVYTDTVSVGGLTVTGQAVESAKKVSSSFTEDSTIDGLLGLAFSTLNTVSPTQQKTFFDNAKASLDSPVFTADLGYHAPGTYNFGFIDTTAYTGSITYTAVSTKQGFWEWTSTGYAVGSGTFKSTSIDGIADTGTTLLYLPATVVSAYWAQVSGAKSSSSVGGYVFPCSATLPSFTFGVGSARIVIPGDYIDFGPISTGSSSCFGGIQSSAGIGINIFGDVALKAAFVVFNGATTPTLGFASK

Row | Compound | Ki [1] [nM] | IC50 [2] [nM] | IC50 [3] [nM]
1 | N[C@@H](Cc1c[nH]c2ccccc12)C(=O)N/N=C/c1cccc(/C=N/NC(=O)[C@@H](N)Cc2c[nH]c3ccccc23)c1 [compound 13, bis-acylhydrazone 13] | 25.4 ± 0.2 | 54 ± 0.5 | 
2 | N[C@@H](Cc1ccccc1)C(=O)N/N=C/c1cccc(/C=N/NC(=O)[C@@H](N)Cc2ccccc2)c1 [compound 16, bis-acylhydrazone 16] | 980 ± 50 |  | 2100 ± 100

Reference: article PMC5113778, “Fragment Linking and Optimization of Inhibitors of the Aspartic Protease Endothiapepsin: Fragment‐Based Drug Design Facilitated by Dynamic Combinatorial Chemistry” (Angewandte Chemie (International Ed. in English), 2016)
